Measured values: US10174052B2, “Quinuclidine compounds as α-7 nicotinic acetylcholine receptor ligands” (BRISTOL-MYERS SQUIBB COMPANY, priority 2014, dated 2019)
Like-named read-outs stand apart in the source and are kept apart here.

Target: T1, α7 nicotinic ACh receptor ion channel expressed in mammalian HEK 293 cells (Rattus norvegicus, UniProt Q05941)
T1 construct: expressed in transfected cells
Assay: Ca2+-sensitive fluorescence-based assay for α7 nicotinic acetylcholine receptor channel function (FLIPR), agonist activity
Format: cell-based
Description: II) A Ca^2+-Sensitive, Fluorescence-Based Assay α-7 for Nicotinic Acetylcholine Receptor Channel Function in Mammalian Cells (“FLIPR”).
Lead compounds are evaluated for agonist activity at the α7 nicotinic ACh receptor ion channel expressed in mammalian HEK 293 cells. Agonist potency and efficacy values are determined from kinetic fluorescence Ca^2+ influx measurements made using a 384 well FLIPR (Fluorescence Image Plate Reader). The utility of fluorescent indicators for measuring changes in intracellular divalent cation concentrations, particularly Ca^2+, for drug discovery endeavors is well documented (Rudiger, R., et al., Nature Reviews, 2003, 4:579-586; Gonzalez J. E., et al., Receptors and Channels, 2002, 8:283-295). In this assay, channel expressing HEK cell lines seeded in 384 well assay plates are loaded with a membrane permeant fluorescent Ca^2+ indicator dye, whose 510 nm green emission signal increases in response to elevation of intracellular Ca^2+ concentration. The basal fluorescence from the cells is monitored in real time, followed by the acute addition of test compounds. If the compound is an agonist at any of the non-selective cation channels, the latter open and allow the movement of extracellular Ca^2+ ions into the cell cytoplasm, where they bind to the Ca^2+ indicator dye, and produce an increase in fluorescence output signal, which is detected by a cooled CCD imaging camera.
Reagents: The acetomethoxy (AM) ester of the Ca^2+ indicator dye Fluo-4 was obtained from InVitrogen, (Carlsbad, Calif.). Acetylcholine and all buffer constituents were purchased from Sigma Chemical Company, St. Louis, Mo. G418 and Minimal Essential Medium were purchased from InVitrogen Life Technologies, Carlsbad, Calif. Fetal bovine serum was purchased from (InVitrogen, Carlsbad, Calif.).
HEK-293 cells were grown in Minimal Essential Medium containing 10% (v/v) fetal bovine serum at 37° C. in a 5% CO2 incubator. HEK-293 cells stably expressing the ion channels were grown in the same medium with the addition of 500 μg/ml G418.
HEK-293 cells expressing the ion channels of interest were plated in 384 well, black-walled, clear-bottomed, poly-D-lysine coated plates at a density of ˜20,000 cells/well in 20 μl of Minimal Essential Medium containing 10% (v/v) fetal bovine serum and incubated for 2 days at 29° C. in a 5% CO2 incubator. Prior to assay, cells were loaded with the Fluo-4 AM ester. Cell loading was accomplished by removing the culture medium and replacing it with 30 μl/well of the AM ester of the dye (5 μM) mixed with Hanks Balanced Salt Solution (#14175-095) containing 20 mM HEPES, 2.5 mM probenecid, 0.5 mM CaCl2, 1 mM MgCl2 and 10 μM atropine. Dye loading was allowed to proceed for 90 minutes at room temperature at which time the dye loading solution was removed and replaced with 40 μl/well of Hanks buffer. Cells loaded with dye were loaded onto a FLIPR384 (Molecular Devices, Sunnyvale, Calif.). Fluo-4 dye was excited using the 488 nm line of an argon laser. Emission was filtered using a 540+/−30 nm bandpass filter. For evaluation of the effects of test compounds using the Ca^2+ flux assay, compounds to be tested were provided in assay ready plates. For nicotinic receptor ion channel expressing cells, the assay was initiated by the addition of 20 μl/well of Hanks buffer containing test compounds. For all assays, data were collected at 1 Hz for 10 seconds (baseline), at which time the compound containing stimulus buffers are added, and further measurements collected at 0.33 Hz for 3 min.
The statistical robustness of the nicotinic receptor Ca^2+ flux assays is determined from blanks and totals wells. The totals wells define maximal channel activation for each compound test plate (Maximum efficacious dose of acetylcholine), and the blanks wells which contain matched DMSO only, define zero channel activation. […]

[1] = FLIPR α7 (EC50, nM), HEK 293 cells, Ca2+ flux, agonist potency
[2] = FLIPR α7 activity rating (EC50, nM), HEK 293 cells, Ca2+ flux, class rating of EC50

T1 sequence (Q05941 23-502): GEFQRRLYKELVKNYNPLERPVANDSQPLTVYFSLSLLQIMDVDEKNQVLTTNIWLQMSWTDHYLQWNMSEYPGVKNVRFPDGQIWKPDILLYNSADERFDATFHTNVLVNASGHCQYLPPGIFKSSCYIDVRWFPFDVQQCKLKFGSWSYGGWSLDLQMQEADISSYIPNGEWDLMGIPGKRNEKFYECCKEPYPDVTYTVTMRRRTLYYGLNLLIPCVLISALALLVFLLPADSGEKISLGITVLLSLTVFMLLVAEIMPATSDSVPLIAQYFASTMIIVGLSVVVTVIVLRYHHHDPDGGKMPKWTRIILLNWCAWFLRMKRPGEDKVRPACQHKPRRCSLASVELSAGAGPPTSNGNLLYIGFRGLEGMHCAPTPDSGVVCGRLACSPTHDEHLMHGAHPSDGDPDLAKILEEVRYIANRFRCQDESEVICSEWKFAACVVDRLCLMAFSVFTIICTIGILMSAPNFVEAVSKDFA

For `Cc1ccc2nc3n(c2c1)C[C@@]1(CN2CCC1CC2)O3` (single isomer, unassigned) [Example 7a], the EC50 [1] was 35 nM and the EC50 [2] was < 100 nM.
`COc1ccc(-c2cccc3c2nc2n3C[C@]3(CN4CCC3CC4)O2)cc1` (single isomer, unassigned) [Example 12a] was tested, and the EC50 [1] was > 100000 nM and the EC50 [2] was > 1e+06 nM.
`Cc1cccc2c1nc1n2C[C@]2(CN3CCC2CC3)O1` (single isomer, unassigned) [Example 10a] gave an EC50 [1] of 263 nM and an EC50 [2] of 100 to 1000 nM.
`c1nc2n(n1)CC1(CN3CCC1CC3)O2` (racemic) [Example 17, 6H-1′-Azaspiro[oxazolo[3,2-b][1,2,4]triazole-5,3′-bicyclo[2.2.2]octane]] gave an EC50 [1] of 321 nM and an EC50 [2] of 100 to 1000 nM.
Work on `Clc1cccc2nc3n(c12)C[C@]1(CN2CCC1CC2)O3` (single isomer, unassigned) [Example 9d] yielded an EC50 [1] of 3950 nM and an EC50 [2] of 1000 to 100000 nM.
Compound `c1ccc2c(c1)nc1n2C[C@]2(CN3CCC2CC3)O1` (single isomer, unassigned) [Example 4b] has an EC50 [1] of 6660 nM and an EC50 [2] of 1000 to 100000 nM.
In the case of `Clc1cccc2c1nc1n2C[C@@]2(CN3CCC2CC3)O1` (single isomer, unassigned) [Example 9b], the EC50 [1] is reported as 24.6 nM and the EC50 [2] is reported as < 100 nM.
Compound `c1ccc(-c2nc3n(n2)C[C@]2(CN4CCC2CC4)O3)cc1` [Example 14a, (S)-2-Phenyl-6H-1′-azaspiro[oxazolo[3,2-b][1,2,4]triazole-5,3′-bicyclo[2.2.2]octane]] has an EC50 [1] of 437 nM and an EC50 [2] of 100 to 1000 nM.
For `c1ccc(-c2cn3c(n2)O[C@]2(CN4CCC2CC4)C3)cc1` [Example 21b, (R)-6-Phenyl-3H-1′-azaspiro[imidazo[2,1-b]oxazole-2,3′-bicyclo[2.2.2]octane]], the EC50 [1] was 53 nM and the EC50 [2] was < 100 nM.
For `FC(F)(F)c1cccc2c1nc1n2C[C@@]2(CN3CCC2CC3)O1` (single isomer, unassigned) [Example 11b], the EC50 [1] was 22 nM and the EC50 [2] was < 100 nM.
In the case of `COc1ccc2c(c1)nc1n2C[C@@]2(CN3CCC2CC3)O1` (single isomer, unassigned) [Example 6b], the EC50 [1] is reported as 10.3 nM and the EC50 [2] is reported as < 100 nM.
`c1cncc(-c2ccc3c(c2)nc2n3C[C@@]3(CN4CCC3CC4)O2)c1` (single isomer, unassigned) [Example 13b] was tested, and the EC50 [1] was 634 nM and the EC50 [2] was 100 to 1000 nM.
For `Clc1cccc2nc3n(c12)C[C@@]1(CN2CCC1CC2)O3` (single isomer, unassigned) [Example 9c], the EC50 [1] was 347 nM and the EC50 [2] was 100 to 1000 nM.
`Brc1nc2n(c1Br)C[C@]1(CN3CCC1CC3)O2` (single isomer, unassigned) [Example 1a] was tested, and the EC50 [1] was 5690 nM and the EC50 [2] was 1000 to 100000 nM.
`Cc1cccc2c1nc1n2C[C@@]2(CN3CCC2CC3)O1` (single isomer, unassigned) [Example 10b] was tested, and the EC50 [1] was 9.1 nM and the EC50 [2] was < 100 nM.
For `FC(F)(F)c1cccc2c1nc1n2C[C@]2(CN3CCC2CC3)O1` (single isomer, unassigned) [Example 11a], the EC50 [1] was 32500 nM and the EC50 [2] was 1000 to 100000 nM.
In the case of `Clc1nc2n(c1Cl)C[C@@]1(CN3CCC1CC3)O2` [Example 2b, (R)-5,6-Dichloro-3H-1′-azaspiro[imidazo[2,1-b]oxazole-2,3′-bicyclo[2.2.2]octane]], the EC50 [1] is reported as 14.2 nM and the EC50 [2] is reported as < 100 nM.
For `Clc1nc2n(c1Cl)C[C@]1(CN3CCC1CC3)O2` [Example 2a, (S)-5,6-Dichloro-3H-1′-azaspiro[imidazo[2,1-b]oxazole-2,3′-bicyclo[2.2.2]octane]], the EC50 [1] was 1500 nM and the EC50 [2] was 1000 to 100000 nM.
`Brc1nc2n(n1)CC1(CN3CCC1CC3)O2` (racemic) [Example 15, 2-Bromo-6H-1′-azaspiro[oxazolo[3,2-b][1,2,4]triazole-5,3′-bicyclo[2.2.2]octane]] gave an EC50 [1] of 362 nM and an EC50 [2] of 100 to 1000 nM.
`FC(F)(F)c1ccc2c(c1)nc1n2C[C@]2(CN3CCC2CC3)O1` (single isomer, unassigned) [Example 8d] was tested, and the EC50 [1] was 1330 nM and the EC50 [2] was 1000 to 100000 nM.
In the case of `Cc1cc2nc3n(c2cc1C)C[C@@]1(CN2CCC1CC2)O3` (single isomer, unassigned) [Example 5a], the EC50 [1] is reported as 65.3 nM and the EC50 [2] is reported as < 100 nM.
With `Brc1cnc2c(c1)nc1n2CC2(CN3CCC2CC3)O1` (racemic) [Example 19, 7-Bromo-3H-1′-azaspiro[oxazolo[2′,3′:2,3]imidazo[4,5-b]pyridine-2,3′-bicyclo[2.2.2]octane]] the EC50 [1] was 49 nM and the EC50 [2] was < 100 nM.
For `FC(F)(F)c1ccc2nc3n(c2c1)C[C@]1(CN2CCC1CC2)O3` (single isomer, unassigned) [Example 8c], the EC50 was > 100000 nM and the EC50 [2] was > 1e+06 nM.
For `FC(F)(F)c1ccc2nc3n(c2c1)C[C@@]1(CN2CCC1CC2)O3` (single isomer, unassigned) [Example 8b], the EC50 was 7190 nM and the EC50 [2] was 1000 to 100000 nM.
In the case of `Cc1cc2nc3n(c2cc1C)C[C@]1(CN2CCC1CC2)O3` (single isomer, unassigned) [Example 5b], the EC50 [1] is reported as > 100000 nM and the EC50 [2] is reported as > 1e+06 nM.
`Cc1nc2c(cc1Br)nc1n2CC2(CN3CCC2CC3)O1` (racemic) [Example 18, 7-Bromo-6-methyl-3H-1′-azaspiro[oxazolo[2′,3′:2,3]imidazo[4,5-b]pyridine-2,3′-bicyclo[2.2.2]octane]] was tested, and the EC50 [1] was 967 nM and the EC50 [2] was 100 to 1000 nM.
In the case of `FC(F)(F)c1ccc2c(c1)nc1n2C[C@@]2(CN3CCC2CC3)O1` (single isomer, unassigned) [Example 8a], the EC50 [1] is reported as 4.7 nM and the EC50 [2] is reported as < 100 nM.
For `Cc1c(Br)nc2n1CC1(CN3CCC1CC3)O2` (racemic) [Example 3b, 6-Bromo-5-methyl-3H-1′-azaspiro[imidazo[2,1-b]oxazole-2,3′-bicyclo[2.2.2]octane]], the EC50 [1] was 71.4 nM and the EC50 [2] was < 100 nM.
`Brc1nc2n(c1Br)C[C@@]1(CN3CCC1CC3)O2` (single isomer, unassigned) [Example 1b] was tested, and the EC50 [1] was 19.6 nM and the EC50 [2] was < 100 nM.
In the case of `c1cncc(-c2ccc3c(c2)nc2n3C[C@]3(CN4CCC3CC4)O2)c1` (single isomer, unassigned) [Example 13a], the EC50 [1] is reported as 2990 nM and the EC50 [2] is reported as 1000 to 100000 nM.
`c1ccc(-c2nc3n(n2)C[C@@]2(CN4CCC2CC4)O3)cc1` [Example 14b, (R)-2-Phenyl-6H-1′-azaspiro[oxazolo[3,2-b][1,2,4]triazole-5,3′-bicyclo[2.2.2]octane]] was tested, and the EC50 [1] was 4.1 nM and the EC50 [2] was < 100 nM.
In the case of `Cc1nc2n(c1Br)CC1(CN3CCC1CC3)O2` (racemic) [Example 3a, 5-Bromo-6-methyl-3H-1′-azaspiro[imidazo[2,1-b]oxazole-2,3′-bicyclo[2.2.2]octane]], the EC50 [1] is reported as 36.1 nM and the EC50 [2] is reported as < 100 nM.
`COc1ccc(-c2cccc3c2nc2n3C[C@@]3(CN4CCC3CC4)O2)cc1` (single isomer, unassigned) [Example 12b] was tested, and the EC50 [1] was 28 nM and the EC50 [2] was < 100 nM.
With `Clc1nc2n(n1)CC1(CN3CCC1CC3)O2` (racemic) [Example 16, 2-Chloro-6H-1′-azaspiro[oxazolo[3,2-b][1,2,4]triazole-5,3′-bicyclo[2.2.2]octane]] the EC50 [1] was 174 nM and the EC50 [2] was 100 to 1000 nM.
`c1ccc2c(c1)nc1n2C[C@@]2(CN3CCC2CC3)O1` (single isomer, unassigned) [Example 4a] was tested, and the EC50 [1] was 13.6 nM and the EC50 [2] was < 100 nM.
In the case of `Clc1cccc2c1nc1n2C[C@]2(CN3CCC2CC3)O1` (single isomer, unassigned) [Example 9a], the EC50 [1] is reported as 12100 nM and the EC50 [2] is reported as 1000 to 100000 nM.
For `Clc1cnc2c(c1)nc1n2CC2(CN3CCC2CC3)O1` (racemic) [Example 20, 7-Chloro-3H-1′-azaspiro[oxazolo[2′,3′:2,3]imidazo[4,5-b]pyridine-2,3′-bicyclo[2.2.2]octane]], the EC50 [1] was 66 nM and the EC50 [2] was < 100 nM.
